Consider 16 molecules from article PMC5655388, “Nicotinamide-based diamides derivatives as potential cytotoxic agents: synthesis and biological evaluation” (Chemistry Central Journal, 2017).

In data set [1] the test system is NCI-H460 (Human large cell lung cancer cell line). The data set can be described thus: MTT in vitro cytotoxicity assay, NCI-H460. Type of data set: cell-based. As to conditions: for IC50: Homo sapiens, NCI-H460 cells, MTT assay, mean ± SD; for Cytotoxic (inhibitory) activity at single concentration, NCI-H460: 40 µg/mL, preliminary screen (Fig. 4), result in words. The protocol:
(§1) All newly prepared nicotinamide-based diamides derivatives 4a–k and several similar diamides 4l–o were evaluated for their in vitro cytotoxic effects against NCI-H460 (Human large cell lung cancer cell line), A549 (Human lung cancer cell line), NCI-H1975 (Human lung cancer cell line), HL-7702 (Human normal liver cells), and MDCK (Madin-Darby canine kidney cells) cell lines by the modified MTT (3-(4,5-dimethylthiazol-2-yl)-2,5-diphenyl tetrazolium bromide) assay using 5-FU (5-Fluorouracil) as a positive control.
(§2) The in vitro cytotoxicity of the synthesized compounds against different human lung cancer cell lines (NCI-H460, A549, NCI-H1975) and normal cells (HL-7702 and MDCK) were measured with the 3-(4,5-dimethylthiazol-2-yl)-2,5-diphenyl tetrazolium bromide (MTT) assay. All the data of the experiment were analyzed with SPSS software, and the 50% inhibitory concentrations (IC50) of each compound for the different cell lines were determined. A control was run for each test, and all assays were performed in triplicate on three independent experiments, and measurement data were expressed as the mean ± SD.

The subject of data set [2] is A549 (Human lung cancer cell line). The data set can be described thus: MTT in vitro cytotoxicity assay, A549. Type of data set: cell-based. To be noted: for IC50: Homo sapiens, A549 cells, MTT assay, mean ± SD; for Cytotoxic (inhibitory) activity at single concentration, A549: 40 µg/mL, preliminary screen (Fig. 4), result in words. The protocol:
as §1, §2

Data set [3] relates to NCI-H1975 (Human lung cancer cell line). The data set can be described thus: MTT in vitro cytotoxicity assay, NCI-H1975. It counts as cell-based. To be noted: for IC50: Homo sapiens, NCI-H1975 cells, MTT assay, mean ± SD; for Cytotoxic (inhibitory) activity at single concentration, NCI-H1975: 40 µg/mL, preliminary screen (Fig. 4), result in words. The protocol: as §1, §2
The nature of data set [4]: MTT in vitro cytotoxicity assay, HL-7702 normal cells. Type of data set: cell-based. To be noted: human, HL-7702 normal liver cells, mean ± SD. The protocol: as §1, §2
A short description of data set [5]: MTT in vitro cytotoxicity assay, MDCK normal cells. It counts as cell-based, canine. As to conditions: dog, MDCK normal kidney cells, mean ± SD. The protocol:
as §1, §2

Converted amounts (≈) assume the structure as drawn. Some results are limits rather than exact numbers.

Turning to `NC(=O)c1cccnc1NC(=O)c1ccccc1Nc1cccc(C(F)(F)F)c1` [4a, 2-(2-((3-(Trifluoromethyl)phenyl)amino)benzamido)nicotinamide], the IC50 in data set [1], in data set [2], in data set [3], in data set [4] and in data set [5] was over 40 µg/mL each time.
Turning to `CNC(=O)c1cccnc1NC(=O)c1ccccc1Nc1cccc(C(F)(F)F)c1` [4b, N-Methyl-2-(2-((3-(trifluoromethyl)phenyl)amino)benzamido)nicotinamide], the IC50 in data set [1] was 36.7 ± 2.8 µg/mL (≈ 88.5 µM); in data set [2], over 40 µg/mL; in data set [3], over 40 µg/mL; in data set [4], over 40 µg/mL; in data set [5] it was over 40 µg/mL.
Take `CC(O)CNC(=O)c1cccnc1NC(=O)c1ccccc1Nc1cccc(C(F)(F)F)c1` (centres unmarked) [4c, N-(2-Hydroxypropyl)-2-(2-((3-(trifluoromethyl)phenyl)amino)benzamido)nicotinamide]: the “Cytotoxic (inhibitory) activity at single concentration, NCI-H460” value (“Cytotoxic (inhibitory) activity … NCI-H460” for short) in data set [1] is listed as “significant inhibitory activities”. Besides, the IC50 in data set [1] turned out to be 20.6 ± 1.37 µg/mL (≈ 45 µM); in data set [2], 26.3 ± 3.22 µg/mL (≈ 57.4 µM); in data set [3], 27.2 ± 2.76 µg/mL (≈ 59.4 µM); in data set [4] it was 19.7 ± 0.45 µg/mL (≈ 43 µM); in data set [5], 17 ± 0.84 µg/mL (≈ 37 µM). Also, the “Cytotoxic (inhibitory) activity at single concentration, A549” value (“Cytotoxic (inhibitory) activity … A549” for short) in data set [2] is listed as “significant inhibitory activities”. In data set [3], the “Cytotoxic (inhibitory) activity at single concentration, NCI-H1975” value (“Cytotoxic (inhibitory) activity … NCI-H1975” for short) is on record as “significant inhibitory activities”.
Turning to `CC(=O)CNC(=O)c1cccnc1NC(=O)c1ccccc1Nc1cccc(C(F)(F)F)c1` [4d, N-(2-Oxopropyl)-2-(2-((3-(trifluoromethyl)phenyl)amino)benzamido)nicotinamide], the “Cytotoxic (inhibitory) activity … NCI-H460” value in data set [1] is on record as “significant inhibitory activities”. Also, the IC50 is 4.07 ± 1.3 µg/mL (≈ 8.92 µM) in data set [1]; 13.1 ± 2.45 µg/mL (≈ 28.7 µM) in data set [2]; 12.8 ± 1.59 µg/mL (≈ 28.1 µM) in data set [3]; 26.9 ± 0.95 µg/mL (≈ 58.9 µM) in data set [4]; 13.4 ± 0.29 µg/mL (≈ 29.5 µM) in data set [5]. For the same molecule, in data set [2], the “Cytotoxic (inhibitory) activity … A549” value is “significant inhibitory activities”. Besides, the “Cytotoxic (inhibitory) activity … NCI-H1975” value in data set [3] is on record as “significant inhibitory activities”.
On to `Cc1cc(Cl)cc(C(N)=O)c1NC(=O)c1cccnc1Nc1cccc(C(F)(F)F)c1` [4e, N-(2-Carbamoyl-4-chloro-6-methylphenyl)-2-((3-(trifluoromethyl)phenyl)amino)nicotinamide], for which the IC50 in data set [1], in data set [2], in data set [3], in data set [4] and in data set [5] was over 40 µg/mL throughout. Further, the “Cytotoxic (inhibitory) activity … A549” value in data set [2] was “selective cytotoxicity”.
For the molecule `CNC(=O)c1cc(Cl)cc(C)c1NC(=O)c1cccnc1Nc1cccc(C(F)(F)F)c1` [4f, N-(4-Chloro-2-methyl-6-(methylcarbamoyl)phenyl)-2-((3-(trifluoromethyl)phenyl)amino)nicotinamide], the IC50 in data set [1], in data set [2], in data set [3], in data set [4] and in data set [5] was over 40 µg/mL throughout.
Regarding `NC(=O)c1cccnc1NC(=O)c1cccnc1Nc1cccc(C(F)(F)F)c1` [4g, N-(3-Carbamoylpyridin-2-yl)-2-((3-(trifluoromethyl)phenyl)amino)nicotinamide], in data set [1], the “Cytotoxic (inhibitory) activity … NCI-H460” value was “significant inhibitory activities”. Moreover, the IC50 in data set [1] was determined as 9.17 ± 2.02 µg/mL (≈ 22.8 µM); in data set [2], 20.1 ± 0.48 µg/mL (≈ 50.1 µM); in data set [3], 10.8 ± 2.22 µg/mL (≈ 27 µM); in data set [4], 9.86 ± 0.34 µg/mL (≈ 24.6 µM); in data set [5] it was 13 ± 1.27 µg/mL (≈ 32.5 µM). Besides, in data set [2], the “Cytotoxic (inhibitory) activity … A549” value was “significant inhibitory activities”. Moreover, the “Cytotoxic (inhibitory) activity … NCI-H1975” value in data set [3] was “significant inhibitory activities”.
For the molecule `CNC(=O)c1cccnc1NC(=O)c1cccnc1Nc1cccc(C(F)(F)F)c1` [4h, N-Methyl-2-(2-((3-(trifluoromethyl)phenyl)amino)nicotinamido)nicotinamide], in data set [1], the “Cytotoxic (inhibitory) activity … NCI-H460” value is “significant inhibitory activities”. The IC50 in data set [1] turned out to be 9.31 ± 2.66 µg/mL (≈ 22.4 µM); in data set [2] it was 17.2 ± 3.4 µg/mL (≈ 41.4 µM); in data set [3], 12.4 ± 2.52 µg/mL (≈ 29.9 µM); in data set [4], 11.6 ± 2.08 µg/mL (≈ 28 µM); in data set [5], 11.1 ± 0.24 µg/mL (≈ 26.6 µM). Moreover, the “Cytotoxic (inhibitory) activity … A549” value in data set [2] was “significant inhibitory activities”. Besides, the “Cytotoxic (inhibitory) activity … NCI-H1975” value in data set [3] is recorded as “significant inhibitory activities”.
As to `CC(O)CNC(=O)c1cccnc1NC(=O)c1cccnc1Nc1cccc(C(F)(F)F)c1` (centres unmarked) [4i, N-(2-Hydroxypropyl)-2-(2-((3-(trifluoromethyl)phenyl)amino)nicotinamido)nicotinamide], in data set [1], the “Cytotoxic (inhibitory) activity … NCI-H460” value was “significant inhibitory activities”. The IC50 in data set [1] was found to be 13.1 ± 4.49 µg/mL (≈ 28.5 µM); in data set [2], 16.5 ± 3.53 µg/mL (≈ 36 µM); in data set [3], 9.15 ± 1.64 µg/mL (≈ 19.9 µM); in data set [4] it was 14.5 ± 2.19 µg/mL (≈ 31.6 µM); in data set [5], 11.62 ± 0.06 µg/mL (≈ 25.3 µM). In addition, the “Cytotoxic (inhibitory) activity … A549” value in data set [2] was “significant inhibitory activities”. The “Cytotoxic (inhibitory) activity … NCI-H1975” value in data set [3] is given as “significant inhibitory activities”.
`NC(=O)c1cc2ccccc2cc1NC(=O)c1cccnc1Nc1cccc(C(F)(F)F)c1` [4j, N-(3-Carbamoylnaphthalen-2-yl)-2-((3-(trifluoromethyl)phenyl)amino)nicotinamide]: the IC50 in data set [1] is 38.4 ± 3.95 µg/mL (≈ 85.3 µM); in data set [2], 24.8 ± 3 µg/mL (≈ 55 µM); in data set [3], 25.2 ± 3.35 µg/mL (≈ 55.9 µM); in data set [4] it was 18.1 ± 1.63 µg/mL (≈ 40.2 µM); in data set [5], 14.3 ± 0.66 µg/mL (≈ 31.7 µM).
With `CNC(=O)c1cc2ccccc2cc1NC(=O)c1cccnc1Nc1cccc(C(F)(F)F)c1` [4k, N-(3-(Methylcarbamoyl)naphthalen-2-yl)-2-((3-(trifluoromethyl)phenyl)amino)nicotinamide], the IC50 in data set [1] was over 40 µg/mL; in data set [2], 35.3 ± 2.19 µg/mL (≈ 76 µM); in data set [3] it was over 40 µg/mL; in data set [4], over 40 µg/mL; in data set [5], over 40 µg/mL. For the same molecule, the “Cytotoxic (inhibitory) activity … A549” value in data set [2] is recorded as “selective cytotoxicity”.
Turning to `Cc1cc(Cl)cc(C(N)=O)c1NC(=O)c1ccccc1Nc1cccc(C(F)(F)F)c1` [4l, 5-Chloro-3-methyl-2-(2-((3-(trifluoromethyl)phenyl)amino)benzamido)benzamide], the IC50 in data set [1], in data set [2], in data set [3], in data set [4] and in data set [5] was over 40 µg/mL each time. Besides, the “Cytotoxic (inhibitory) activity … A549” value in data set [2] is on record as “selective cytotoxicity”.
For the molecule `CNC(=O)c1cc(Cl)cc(C)c1NC(=O)c1ccccc1Nc1cccc(C(F)(F)F)c1` [4m, 5-Chloro-N,3-dimethyl-2-(2-((3-(trifluoromethyl)phenyl)amino)benzamido)benzamide], the “Cytotoxic (inhibitory) activity … NCI-H460” value in data set [1] is given as “good inhibition activities”. For the same molecule, the IC50 in data set [1] was determined as 6.85 ± 0.23 µg/mL (≈ 14.8 µM); in data set [2], 6.77 ± 0.86 µg/mL (≈ 14.7 µM); in data set [3], 10.8 ± 1.02 µg/mL (≈ 23.4 µM); in data set [4] it was 21.4 ± 1.79 µg/mL (≈ 46.4 µM); in data set [5] it was 21.2 ± 3.59 µg/mL (≈ 46 µM). Further, the “Cytotoxic (inhibitory) activity … A549” value in data set [2] is given as “good inhibition activities”. Further, the “Cytotoxic (inhibitory) activity … NCI-H1975” value in data set [3] is listed as “good inhibition activities”.
Consider `NC(=O)c1cc2ccccc2cc1NC(=O)c1ccccc1Nc1cccc(C(F)(F)F)c1` [4n, 3-(2-((3-(Trifluoromethyl)phenyl)amino)benzamido)-2-naphthamide], for which the IC50 in data set [1] is over 40 µg/mL; in data set [2] it was over 40 µg/mL; in data set [3] it was over 40 µg/mL; in data set [4], over 40 µg/mL; in data set [5], 14.44 ± 0.01 µg/mL (≈ 32.1 µM).
In the case of `CNC(=O)c1cc2ccccc2cc1NC(=O)c1ccccc1Nc1cccc(C(F)(F)F)c1` [4o, N-Methyl-3-(2-((3-(trifluoromethyl)phenyl)amino)benzamido)-2-naphthamide], the IC50 in data set [1], in data set [2], in data set [3], in data set [4] and in data set [5] was over 40 µg/mL each time.
As for `O=c1[nH]cc(F)c(=O)[nH]1` [5-FU, 5-Fluorouracil, reference compound], the IC50 in data set [1] was 8.02 ± 2.35 µg/mL (≈ 61.7 µM); in data set [2], 37.5 ± 3.25 µg/mL (≈ 288 µM); in data set [3], 24.8 ± 5.8 µg/mL (≈ 190 µM); in data set [4] it was 11.3 ± 1.67 µg/mL (≈ 87.3 µM); in data set [5] it was 8.65 ± 0.81 µg/mL (≈ 66.5 µM).
